The subject of one assay is Puccinia triticina. As to the kind of experiment: Fungicidal activity: Wheat Brown Rust (PUCCRT). The settings on record: Low Volume (121.5 g/H). In kind it is in vivo. Here is the method: (§1) Technical grades of materials were dissolved in acetone, which were then mixed with nine volumes of water containing 110 ppm Triton X-100. The fungicide solutions were applied onto wheat seedlings using an automated booth sprayer to run-off. All sprayed plants were allowed to air dry prior to further handling. All fungicides were evaluated using the aforementioned method for their activity vs. all target diseases, unless stated otherwise. Wheat leaf blotch and brown rust activity were also evaluated using track spray applications, in which case the fungicides were formulated as EC formulations, containing 0.1% Trycol 5941 in the spray solutions. Wheat plants (variety Yuma) were grown from seed in a greenhouse in 50% mineral soil/50% soil-less Metro mix until the first leaf was fully emerged, with 7-10 seedlings per pot. These plants were inoculated with an aqueous spore suspension of Septoria tritici either prior to or after fungicide treatments. After inoculation the plants were kept in 100% relative humidity (one day in a dark dew chamber followed by two to three days in a lighted dew chamber at 20° C.) to permit spores to germinate and infect the leaf. The plants were then transferred to a greenhouse set at 20° C. for disease to develop. When disease symptoms were fully expressed on the 1st leaves of untreated plants, infection levels were assessed on a scale of 0 to 100 percent disease severity. Percent disease control was calculated using the ratio of disease severity on treated plants relative to untreated plants. Evaluation of Fungicidal Activity: Wheat Brown Rust (Puccinia triticina; Synonym: Puccinia recondite f. Sp. Tritici; Bayer Code PUCCRT) Wheat plants (variety Yuma) were grown from seed in a greenhouse in 50% mineral soil/50% soil-less Metro mix until the first leaf was fully emerged, with 7-10 seedlings per pot. These plants were inoculated with an aqueous spore suspension of Puccinia triticina either prior to or after fungicide treatments. After inoculation the plants were kept in a dark dew room at 22° C. with 100% relative humidity overnight to permit spores to germinate and infect the leaf. The plants were then transferred to a greenhouse set at 24° C. for disease to develop. Fungicide formulation, application and disease assessment followed the procedures as described in the Example A.

Assay [1] relates to Mycosphaerella graminicola; Anamorph: Septoria tritici. As to the kind of experiment: Fungicidal activity: Leaf Blotch of Wheat (SEPTTR). In kind it is in vivo. The settings on record: Zymoseptoria tritici, Low Volume (121.5 g/H), wheat leaf blotch. Here is the method: as §1, with “Evaluation of Fungicidal Activity: Leaf Blotch of Wheat (Mycosphaerella graminicola; Anamorph: Septoria tritici; Bayer Code […]) Technical” for “Technical”, “plants.” for “plants. Evaluation of Fungicidal Activity: Wheat Brown Rust (Puccinia triticina; Synonym: Puccinia recondite f. Sp. Tritici; Bayer Code PUCCRT) Wheat plants (variety Yuma) were grown from seed in a greenhouse in 50% mineral soil/50% soil-less Metro mix until the first leaf was fully emerged, with 7-10 seedlings per pot. These plants were inoculated with an aqueous spore suspension of Puccinia triticina either prior to or after fungicide treatments. After inoculation the plants were kept in a dark dew room at 22° C. with 100% relative humidity overnight to permit spores to germinate and infect the leaf. The plants were then transferred to a greenhouse set at 24° C. for disease to develop. Fungicide formulation, application and disease assessment followed the procedures as described in the Example A.”

Where [2] appears, read: 24 h, 1 Day Protectant, read-out: PUCCRT 1 DP disease control.
Setting [3] is: 72 h, 3 Day Curative, read-out: PUCCRT 3 DC disease control.
Setting [4] is: 24 h, 1 Day Protectant, read-out: SEPTTR 1 DP disease control.
Setting [5] is: 72 h, 3 Day Curative, read-out: SEPTTR 3 DC disease control.

Each structure is given as a SMILES string. Where two headings read alike, the source gives them in different places.

As to `COc1ccnc(C(=O)N[C@H]2COC[C@H](Cc3ccc(C(F)(F)F)cc3)[C@@H](Cc3ccccc3)[C@H](C)OC2=O)c1OC(C)=O` [compound 55], the pest or weed control at 121.5 g/ha (with Puccinia triticina (setting [2]); with Puccinia triticina (setting [3]); in assay [1] (setting [4]); in assay [1] (setting [5])) was more than 70% in each case.
As for `COc1ccnc(C(=O)N[C@H]2COC[C@H](Cc3ccc(C(F)(F)F)cc3)[C@@H](Cc3ccccc3)[C@H](C)OC2=O)c1OCOC(C)=O` [compound 56], the pest or weed control at 121.5 g/ha was more than 70% with Puccinia triticina (setting [2]), less than 70% with Puccinia triticina (setting [3]), more than 70% in assay [1] (setting [4]) and less than 70% in assay [1] (setting [5]).
Take `COc1ccnc(C(=O)N[C@H]2COC[C@H](Cc3ccc(C(F)(F)F)cc3)[C@@H](Cc3ccccc3)[C@H](C)OC2=O)c1OCOC(=O)C(C)C` [compound 57]: the pest or weed control at 121.5 g/ha in the assay on Puccinia triticina (setting [2]) is more than 70%; in the assay with Puccinia triticina (setting [3]), less than 70%; in assay [1] (setting [4]), more than 70%; in assay [1] (setting [5]), more than 70%.
As to `COc1ccnc(C(=O)N[C@H]2COC[C@H](Cc3ccccc3)[C@@H](Cc3ccc(F)cc3)[C@H](C)OC2=O)c1OC(C)=O` [compound 60], the pest or weed control at 121.5 g/ha with Puccinia triticina (setting [2]) was less than 70%; in the assay with Puccinia triticina (setting [3]), less than 70%; in assay [1] (setting [4]), more than 70%; in assay [1] (setting [5]), less than 70%.
On to `COc1ccnc(C(=O)N[C@H]2COC[C@H](Cc3ccccc3)[C@@H](Cc3ccc(F)cc3)[C@H](C)OC2=O)c1OCOC(C)=O` [compound 61], for which the pest or weed control at 121.5 g/ha (in the assay on Puccinia triticina (setting [2]); in the assay on Puccinia triticina (setting [3]); in assay [1] (setting [4]); in assay [1] (setting [5])) was more than 70% each time.
Take `COc1ccnc(C(=O)N[C@H]2COC[C@H](CCCc3ccccc3)[C@@H](CC(C)C)[C@H](C)OC2=O)c1OC(C)=O` [compound 62]: the pest or weed control at 121.5 g/ha (with Puccinia triticina (setting [2]); in the assay with Puccinia triticina (setting [3]); in assay [1] (setting [4]); in assay [1] (setting [5])) was more than 70% each time.
With `CCC[C@H]1COC[C@H](NC(=O)c2nccc(OC)c2OCOC(C)=O)C(=O)O[C@@H](C)[C@@H]1CC(C)C` [compound 63], the pest or weed control at 121.5 g/ha with Puccinia triticina (setting [2]) was more than 70%; in the assay with Puccinia triticina (setting [3]) it was less than 70%; in assay [1] (setting [4]) it was less than 70%; in assay [1] (setting [5]) it was less than 70%.
For the molecule `CCC[C@H]1COC[C@H](NC(=O)c2nccc(OC)c2OC(C)=O)C(=O)O[C@@H](C)[C@@H]1CC(C)C` [compound 64], the pest or weed control at 121.5 g/ha (in the assay with Puccinia triticina (setting [2]); in the assay with Puccinia triticina (setting [3]); in assay [1] (setting [4]); in assay [1] (setting [5])) was more than 70% throughout.
Take `CCC[C@H]1COC[C@H](NC(=O)c2nccc(OC)c2OCOC(=O)C(C)C)C(=O)O[C@@H](C)[C@@H]1CC(C)C` [compound 65]: the pest or weed control at 121.5 g/ha (in the assay on Puccinia triticina (setting [2]); in the assay with Puccinia triticina (setting [3]); in assay [1] (setting [4]); in assay [1] (setting [5])) was more than 70% in each case.
With `COc1ccnc(C(=O)N[C@H]2COC[C@H](Cc3ccc(Cl)cc3)[C@@H](CC(C)C)[C@H](C)OC2=O)c1OCOC(C)=O` [compound 73], the pest or weed control at 121.5 g/ha in the assay with Puccinia triticina (setting [2]) was more than 70%; in the assay with Puccinia triticina (setting [3]) it was less than 70%; in assay [1] (setting [4]), more than 70%; in assay [1] (setting [5]) it was more than 70%.
With `CCOCC(=O)OCOc1c(OC)ccnc1C(=O)N[C@H]1COC[C@H](Cc2ccc(Cl)cc2)[C@@H](CC(C)C)[C@H](C)OC1=O` [compound 74], the pest or weed control at 121.5 g/ha with Puccinia triticina (setting [2]) is more than 70%; in the assay on Puccinia triticina (setting [3]) it was less than 70%; in assay [1] (setting [4]), more than 70%; in assay [1] (setting [5]), more than 70%.

The values are drawn from patent US9955691B2, “Macrocyclic picolinamides as fungicides” (DOW AGROSCIENCES LLC, priority 2014, dated 2018).
